Where no end group is shown, it is not given here.
Experiments:
[1] = Rabbit immunization with BFA5 peptides, IgG titer; assay type: in vivo; conditions: for IgG titer × 10^5 (after second Immunization): KLH-coupled peptide with Freund's Incomplete Adjuvant, two weeks later; for IgG titer × 10^5 (after first Immunization): peptide emulsion with Freund's Complete Adjuvant
Method: Polyclonal antisera were generated against the following series of 22- to 23-mer peptides of BFA5:
Prebleed samples from rabbits were processed and stored at −20° C. Rabbits were immunized as follows: 1) the peptides were administered as an emulsion with Freund's Complete Adjuvant (FCA); and, 2) two weeks later, the peptides were coupled with Keyhole-Limpet Hemocyanin (KLH)-coupled and administered as an emulsion with Freund's Incomplete Adjuvant FIA.

HLA-A*0201 human T cells = assay: IFN-γ ELISPOT of human T-cell cultures activated with BFA5 peptides; assay type: cell-based; conditions: listing of the peptide is the result
peptide-loaded T2 cells = assay: 51Cr-release CTL assay using peptide-loaded T2 cells; assay type: cell-based, human; conditions: listing of the peptide is the result

KLH-TSEKFTWPAKGRPRKIAWEKKED ({KLH}-TSEKFTWPAKGRPRKIAWEKKED) [CLP 2978]
IgG titer × 10^5 (after second Immunization) ([1]; Rb1): 64 × 10^5
IgG titer × 10^5 (after first Immunization) ([1]; Rb1): 25/25 × 10^5
IgG titer × 10^5 (after second Immunization) ([1]; Rb2): 256 × 10^5
IgG titer × 10^5 (after first Immunization) ([1]; Rb2): 25/25 × 10^5

AELQMTLKL
BFA5 peptides eliciting high IFN-γ release (>200 spots/100,000 cells) (HLA-A*0201 human T cells; Donor AP10): AELQMTLKL
BFA5 peptides inducing CTL lysis of pulsed cells (peptide-loaded T2 cells; Donor AP10): AELQMTLKL
BFA5 peptides inducing CTL lysis of pulsed cells (peptide-loaded T2 cells; Donor AP31): AELQMTLKL

VLKKKLSEA
BFA5 peptides eliciting high IFN-γ release (>200 spots/100,000 cells) (HLA-A*0201 human T cells; Donor AP31): VLKKKLSEA

NLNYAGDAL
BFA5 peptides eliciting high IFN-γ release (>200 spots/100,000 cells) (HLA-A*0201 human T cells; Donor AP10): NLNYAGDAL
BFA5 peptides eliciting high IFN-γ release (>200 spots/100,000 cells) (HLA-A*0201 human T cells; Donor AP31): NLNYAGDAL

KVMEINREV
BFA5 peptides eliciting high IFN-γ release (>200 spots/100,000 cells) (HLA-A*0201 human T cells; Donor AP10): KVMEINREV

ALRIQDIEL
BFA5 peptides eliciting high IFN-γ release (>200 spots/100,000 cells) (HLA-A*0201 human T cells; Donor AP10): ALRIQDIEL

SLKINLNYA
BFA5 peptides eliciting high IFN-γ release (>200 spots/100,000 cells) (HLA-A*0201 human T cells; Donor AP10): SLKINLNYA
BFA5 peptides eliciting high IFN-γ release (>200 spots/100,000 cells) (HLA-A*0201 human T cells; Donor AP31): SLKINLNYA
BFA5 peptides inducing CTL lysis of pulsed cells (peptide-loaded T2 cells; Donor AP31): SLKINLNYA

KLH-MTKRKKTINLNIQDAQKRTALHW ({KLH}-MTKRKKTINLNIQDAQKRTALHW) [CLP 2977]
IgG titer × 10^5 (after second Immunization) ([1]; Rb1): 256 × 10^5
IgG titer × 10^5 (after first Immunization) ([1]; Rb1): 25 × 10^5
IgG titer × 10^5 (after second Immunization) ([1]; Rb2): 64 × 10^5
IgG titer × 10^5 (after first Immunization) ([1]; Rb2): 6 × 10^5

MLKKEIAML
BFA5 peptides eliciting high IFN-γ release (>200 spots/100,000 cells) (HLA-A*0201 human T cells; Donor AP31): MLKKEIAML

KCTALMLAV
BFA5 peptides eliciting high IFN-γ release (>200 spots/100,000 cells) (HLA-A*0201 human T cells; Donor AP10): KCTALMLAV

SIPTKALEL
BFA5 peptides eliciting high IFN-γ release (>200 spots/100,000 cells) (HLA-A*0201 human T cells; Donor AP10): SIPTKALEL
BFA5 peptides inducing CTL lysis of pulsed cells (peptide-loaded T2 cells; Donor AP31): SIPTKALEL

KVSIPTKAL
BFA5 peptides eliciting high IFN-γ release (>200 spots/100,000 cells) (HLA-A*0201 human T cells; Donor AP10): KVSIPTKAL
BFA5 peptides inducing CTL lysis of pulsed cells (peptide-loaded T2 cells; Donor AP31): KVSIPTKAL

YLLHENCML
BFA5 peptides eliciting high IFN-γ release (>200 spots/100,000 cells) (HLA-A*0201 human T cells; Donor AP10): YLLHENCML
BFA5 peptides eliciting high IFN-γ release (>200 spots/100,000 cells) (HLA-A*0201 human T cells; Donor AP31): YLLHENCML
BFA5 peptides inducing CTL lysis of pulsed cells (peptide-loaded T2 cells; Donor AP10): YLLHENCML

SVPNKALEL
BFA5 peptides eliciting high IFN-γ release (>200 spots/100,000 cells) (HLA-A*0201 human T cells; Donor AP10): SVPNKALEL

QLQSKNMWL
BFA5 peptides eliciting high IFN-γ release (>200 spots/100,000 cells) (HLA-A*0201 human T cells; Donor AP10): QLQSKNMWL
BFA5 peptides eliciting high IFN-γ release (>200 spots/100,000 cells) (HLA-A*0201 human T cells; Donor AP31): QLQSKNMWL
BFA5 peptides inducing CTL lysis of pulsed cells (peptide-loaded T2 cells; Donor AP31): QLQSKNMWL

KSQEPAFHI
BFA5 peptides eliciting high IFN-γ release (>200 spots/100,000 cells) (HLA-A*0201 human T cells; Donor AP31): KSQEPAFHI

MLKLEIATL
BFA5 peptides eliciting high IFN-γ release (>200 spots/100,000 cells) (HLA-A*0201 human T cells; Donor AP10): MLKLEIATL
BFA5 peptides eliciting high IFN-γ release (>200 spots/100,000 cells) (HLA-A*0201 human T cells; Donor AP31): MLKLEIATL
BFA5 peptides inducing CTL lysis of pulsed cells (peptide-loaded T2 cells; Donor AP31): MLKLEIATL

SLSKILDTV
BFA5 peptides eliciting high IFN-γ release (>200 spots/100,000 cells) (HLA-A*0201 human T cells; Donor AP10): SLSKILDTV
BFA5 peptides eliciting high IFN-γ release (>200 spots/100,000 cells) (HLA-A*0201 human T cells; Donor AP31): SLSKILDTV
BFA5 peptides inducing CTL lysis of pulsed cells (peptide-loaded T2 cells; Donor AP31): SLSKILDTV

NLVDVYGNM
BFA5 peptides eliciting high IFN-γ release (>200 spots/100,000 cells) (HLA-A*0201 human T cells; Donor AP10): NLVDVYGNM
BFA5 peptides inducing CTL lysis of pulsed cells (peptide-loaded T2 cells; Donor AP10): NLVDVYGNM

TVSQKDVCL
BFA5 peptides eliciting high IFN-γ release (>200 spots/100,000 cells) (HLA-A*0201 human T cells; Donor AP10): TVSQKDVCL

KLH-AENTMLTSKLKEKQDKEILEAEI ({KLH}-AENTMLTSKLKEKQDKEILEAEI) [CLP 2981]
IgG titer × 10^5 (after second Immunization) ([1]; Rb1): 256 × 10^5
IgG titer × 10^5 (after first Immunization) ([1]; Rb1): 8 × 10^5
IgG titer × 10^5 (after second Immunization) ([1]; Rb2): 64 × 10^5
IgG titer × 10^5 (after first Immunization) ([1]; Rb2): 4 × 10^5

QIMEYIRKL
BFA5 peptides eliciting high IFN-γ release (>200 spots/100,000 cells) (HLA-A*0201 human T cells; Donor AP10): QIMEYIRKL
BFA5 peptides eliciting high IFN-γ release (>200 spots/100,000 cells) (HLA-A*0201 human T cells; Donor AP31): QIMEYIRKL
BFA5 peptides inducing CTL lysis of pulsed cells (peptide-loaded T2 cells; Donor AP31): QIMEYIRKL

KLH-DEILPSESKQKDYEENSWDTESL ({KLH}-DEILPSESKQKDYEENSWDTESL) [CLP 2979]
IgG titer × 10^5 (after second Immunization) ([1]; Rb1): 256 × 10^5
IgG titer × 10^5 (after first Immunization) ([1]; Rb1): 12 × 10^5
IgG titer × 10^5 (after second Immunization) ([1]; Rb2): 512 × 10^5
IgG titer × 10^5 (after first Immunization) ([1]; Rb2): 25 × 10^5

GVTAEHYAV
BFA5 peptides eliciting high IFN-γ release (>200 spots/100,000 cells) (HLA-A*0201 human T cells; Donor AP31): GVTAEHYAV

SLTPLLLSI
BFA5 peptides eliciting high IFN-γ release (>200 spots/100,000 cells) (HLA-A*0201 human T cells; Donor AP10): SLTPLLLSI
BFA5 peptides eliciting high IFN-γ release (>200 spots/100,000 cells) (HLA-A*0201 human T cells; Donor AP31): SLTPLLLSI
BFA5 peptides inducing CTL lysis of pulsed cells (peptide-loaded T2 cells; Donor AP31): SLTPLLLSI

AVYSEILSV
BFA5 peptides eliciting high IFN-γ release (>200 spots/100,000 cells) (HLA-A*0201 human T cells; Donor AP10): AVYSEILSV

VFAADICGV
BFA5 peptides eliciting high IFN-γ release (>200 spots/100,000 cells) (HLA-A*0201 human T cells; Donor AP31): VFAADICGV

KLH-NYNNHLKNRIYQYEKEKAETENS ({KLH}-NYNNHLKNRIYQYEKEKAETENS) [CLP 2982]
IgG titer × 10^5 (after second Immunization) ([1]; Rb1): 64 × 10^5
IgG titer × 10^5 (after first Immunization) ([1]; Rb1): 2/2 × 10^5
IgG titer × 10^5 (after second Immunization) ([1]; Rb2): 32 × 10^5
IgG titer × 10^5 (after first Immunization) ([1]; Rb2): 2/2 × 10^5

ATCGMKVSI
BFA5 peptides eliciting high IFN-γ release (>200 spots/100,000 cells) (HLA-A*0201 human T cells; Donor AP10): ATCGMKVSI
BFA5 peptides inducing CTL lysis of pulsed cells (peptide-loaded T2 cells; Donor AP10): ATCGMKVSI

KLH-RLTLNQEEEKRRNADILNEKIRE ({KLH}-RLTLNQEEEKRRNADILNEKIRE) [CLP 2980]
IgG titer × 10^5 (after second Immunization) ([1]; Rb1): 1024 × 10^5
IgG titer × 10^5 (after first Immunization) ([1]; Rb1): 25 × 10^5
IgG titer × 10^5 (after second Immunization) ([1]; Rb2): 128 × 10^5
IgG titer × 10^5 (after first Immunization) ([1]; Rb2): 12 × 10^5

ILKEKNAEL
BFA5 peptides eliciting high IFN-γ release (>200 spots/100,000 cells) (HLA-A*0201 human T cells; Donor AP10): ILKEKNAEL
BFA5 peptides eliciting high IFN-γ release (>200 spots/100,000 cells) (HLA-A*0201 human T cells; Donor AP31): ILKEKNAEL

SVPNKAFEL
BFA5 peptides eliciting high IFN-γ release (>200 spots/100,000 cells) (HLA-A*0201 human T cells; Donor AP10): SVPNKAFEL

Source: US20050112099A1, “Tumor antigen BFA5 for prevention and / or treatment of cancer” (Aventis Pasteur, Ltd., priority 2003, published 2005)
